In patent US8685947B2, “Compositions and methods for loop diuretics with consistent bioavailability” (Brown University, priority 2010, dated 2014):

Tested on: albino, male, Sprague-Dawley subjects
Test: Diuretic bioactivity analysis: urine output in metabolic cages after oral gelatin capsule dosing
Format: in vivo, rats
Conditions: 10 mg/kg oral
Method: Subject rats were weighed at the start of each example. Each formulation was prepared and then loaded into size 9 gelatin capsules using a gelatin capsule filler (Torpac, Fairfield, N.J.). Each gelatin capsule was weighed on a microbalance (AD-4 Autobalance, Perkin Elmer, Waltham, Mass.) prior to and after drug loading to prepare oral doses of 2.5 mg, 5 mg, or 10 mg of drug per kg of body mass within 0.5 mg of dose mass.
Each subject was anesthetized in an induction chamber with 3.5% isoflurane (Novation, Irving, Tex.) for 5-10 minutes. Once anesthetized, the subject was removed from the induction chamber and dosed with a size 9 gelatin capsule containing one of the furosemide formulations using the gelatin capsule dosing syringe (Torpac, Fairfield, N.J.). As a negative control the same subjects were administered empty gelatin capsules without furosemide to quantify the basal urine mass output for comparison. Upon recovery from anesthesia, each subject was then transferred to a metabolic cage for urine collection over a 10 hour period.
Twelve albino, male, Sprague-Dawley subjects (450 g to 750 g) were used as subjects in the bioactivity analysis example. Subjects were housed in standard bedded cages in accordance with NIH and IACUC guidelines. Immediately after oral gavage with a furosemide formulation, subjects were housed individually in a metabolic cage rack (Unifab Cages, Kalamazoo, Mich.) as shown in FIG. 2. Subjects were given access to food and water ad libitum throughout the study. Metabolic cages were equipped with wire grating floors that allowed for free passage and collection of excreted material during the period of containing the subject. Feces were collected beneath the large opening wire grating floor by smaller opening wire mesh screen, and urine continued through the screen into a funnel for collection into pre-weighed glass scintillation vials (Cole-Parmer, Vernon Hills, Ill.). At two hour intervals after dosing, the glass scintillation vials were weighed (Mettler Toledo, Columbus, Ohio) to quantify urine output as a function of time and were then replaced. Increased urine output above baseline values was used as a non-invasive measure of diuretic activity of the various furosemide formulations examined. After each 10 hour study, subjects were housed in bedded cages for a recovery period of at least 48 hours between metabolic cage studies.
Each dose was administered to three subjects and the average urine mass produced in the two hour time periods was determined and was compared to the average output of the same subjects that received a sham dosage without any furosemide, referred to in the figures as the basal output.

NS(=O)(=O)c1cc(C(=O)O)c(NCc2ccco2)cc1Cl [stock furosemide, Furosemide]
total urine output at hour 10 relative to the micronized dose (N=3, not significantly different): 1.02 fold | mean urine mass output two hours after dosing relative to basal urine output (N=3, p<0.01): 12.2 fold | mean urine mass output two hours after dosing relative to equivalent dose of micronized furosemide (N=3, p<0.01): 8.6 fold | urine output two hours after oral dosing compared to micronized furosemide and basal control (N=3, p<0.01): statistically significant greater urine output
